This assay has as its target T1, ΔF508-CFTR (Homo sapiens, UniProt P13569, DEL508-508).
T1 construct: Primary lung epithelial cells homozygous for the Cystic Fibrosis-causing ΔF508 mutation were differentiated for a minimum of 4 weeks; endogenous in cells; host or cells: primary lung (bronchial) epithelial cells (hBE) homozygous for ΔF508, differentiated at an air-liquid interface
The experiment in a line: hBE equivalent current (Ieq) assay. Particulars: 24 h, relative to a CFTR amplifier at 3 uM, AUC of equivalent chloride current, primary lung epithelial cells homozygous for ΔF508; for Activity 3 μM: compound at 3 μM; for Activity 10 μM: compound at 10 μM. In kind it is cell-based. How it is done:
ii. hBE Equivalent Current (Ieq) Assay
Primary lung epithelial cells homozygous for the Cystic Fibrosis-causing ΔF508 mutation were differentiated for a minimum of 4 weeks in an air-liquid interface on Costar 24 well HTS filter plates prior to the equivalent current (Ieq) measurements. Cells were apically mucus-washed for 30 minutes 24 h prior to treatment with compounds. The basolateral media was removed and replaced with media containing the compound of interest diluted to its final concentration from DMSO stocks. Treated cells were incubated at 37° C. and 5% CO2 for 24 hours. At the end of the treatment period, the media was changed to the Ieq experimental solution for 2 hours before the experiment and plates are maintained in a CO2-free incubator during this period. The plates containing the cells were then placed in pre-warmed heating blocks at 36° C.±0.5 for 15 minutes before measurements are taken. The transepithelial voltage (VT) and conductance (GT) were measured using a custom 24 channel current clamp (TECC-24) with 24 well electrode manifold. The Ieq assay measurements were made following additions with standardized time periods:
1. The baseline VT and GT values were measured for approximately 20 minutes.
2. Benzamil was added to block ENaC for 15 minutes.
3. Forskolin plus VX-770 were added to maximally activate ΔF508-CFTR for 27 minutes.
4. Bumetanide was added to inhibit the NaK2Cl cotransporter and shut-off secretion of chloride.
The activity data captured was the area under the curve (AUC) for the traces of the equivalent chloride current. The AUC was collected from the time of the forskolin/VX-770 addition until the inhibition by bumetanide addition. Correction in response to compound treatment was scored as the increase in the AUC for compound-treated samples over that of vehicle-treated samples.
The results are shown below in Table 1. + indicates activity <150% of a CFTR amplifier with compound at concentration shown and amplifier at 3 uM; ++ indicates activity >150% of a CFTR amplifier with compound at concentration shown and amplifier at 3 uM.

Molecules are shown by their SMILES.

T1 sequence (P13569 with tags, fused parts or gaps DEL508-508): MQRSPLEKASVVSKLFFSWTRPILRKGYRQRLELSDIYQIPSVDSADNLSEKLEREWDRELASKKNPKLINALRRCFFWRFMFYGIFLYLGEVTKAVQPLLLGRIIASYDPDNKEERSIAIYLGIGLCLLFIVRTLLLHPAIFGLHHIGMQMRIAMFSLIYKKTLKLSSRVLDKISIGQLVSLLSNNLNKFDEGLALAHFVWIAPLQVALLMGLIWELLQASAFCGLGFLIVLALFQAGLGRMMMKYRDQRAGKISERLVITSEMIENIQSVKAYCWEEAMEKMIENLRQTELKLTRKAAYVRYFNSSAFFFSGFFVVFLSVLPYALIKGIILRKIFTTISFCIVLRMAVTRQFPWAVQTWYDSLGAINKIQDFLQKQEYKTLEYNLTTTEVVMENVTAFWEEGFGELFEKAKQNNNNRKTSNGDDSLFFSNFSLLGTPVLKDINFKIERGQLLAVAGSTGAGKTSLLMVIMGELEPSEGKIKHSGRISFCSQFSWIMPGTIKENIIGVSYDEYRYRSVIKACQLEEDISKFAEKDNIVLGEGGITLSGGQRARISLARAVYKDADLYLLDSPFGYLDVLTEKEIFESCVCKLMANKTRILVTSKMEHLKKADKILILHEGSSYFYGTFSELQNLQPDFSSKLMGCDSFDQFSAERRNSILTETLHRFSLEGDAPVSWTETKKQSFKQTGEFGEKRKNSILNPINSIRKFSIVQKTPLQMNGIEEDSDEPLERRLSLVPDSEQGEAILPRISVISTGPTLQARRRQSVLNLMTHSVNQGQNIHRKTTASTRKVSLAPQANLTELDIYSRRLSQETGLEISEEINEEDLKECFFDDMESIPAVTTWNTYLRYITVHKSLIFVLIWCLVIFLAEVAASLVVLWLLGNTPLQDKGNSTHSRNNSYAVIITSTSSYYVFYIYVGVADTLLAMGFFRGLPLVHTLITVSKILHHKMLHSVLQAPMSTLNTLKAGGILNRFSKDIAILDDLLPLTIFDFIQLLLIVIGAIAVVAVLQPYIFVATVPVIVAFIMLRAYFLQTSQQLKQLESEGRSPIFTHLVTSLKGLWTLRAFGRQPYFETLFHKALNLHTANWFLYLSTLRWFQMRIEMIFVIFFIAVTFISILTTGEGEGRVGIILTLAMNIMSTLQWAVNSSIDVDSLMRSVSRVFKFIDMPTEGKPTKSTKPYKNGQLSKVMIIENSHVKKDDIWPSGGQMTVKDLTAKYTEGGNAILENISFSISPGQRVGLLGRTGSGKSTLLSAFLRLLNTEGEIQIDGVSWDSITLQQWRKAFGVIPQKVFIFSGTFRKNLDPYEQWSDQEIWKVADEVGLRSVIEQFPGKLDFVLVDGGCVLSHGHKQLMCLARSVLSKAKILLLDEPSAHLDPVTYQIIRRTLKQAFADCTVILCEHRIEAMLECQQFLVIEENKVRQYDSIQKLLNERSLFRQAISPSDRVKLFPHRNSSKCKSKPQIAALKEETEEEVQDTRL

`COc1cccc(-c2ccc(=O)n(C(C)C(=O)Nc3ccc4cc[nH]c4c3)n2)c1` (centres unmarked) [Compound 2, N-(1H-Indol-6-yl)-2-[3-(3-methoxyphenyl)-6-oxo-1,6-dihydropyridazin-1-yl]propanamide]: the “Activity 3 μM” value was “+ (activity <150% of a CFTR amplifier with compound at concentration shown and amplifier at 3 uM)”; the “Activity 10 μM” value is “+ (activity <150% of a CFTR amplifier with compound at concentration shown and amplifier at 3 uM)”.
Take `COc1cccc(-c2ccc(=O)n(C(C)C(=O)Nc3ccc4[nH]ccc4c3)n2)c1` (centres unmarked) [Compound 3, N-(1H-Indol-5-yl)-2-(3-(3-methoxyphenyl)-6-oxopyridazin-1(6H)-yl)propanamide]: the “Activity 3 μM” value was “+ (activity <150% of a CFTR amplifier with compound at concentration shown and amplifier at 3 uM)”; the “Activity 10 μM” value is “+ (activity <150% of a CFTR amplifier with compound at concentration shown and amplifier at 3 uM)”.
On to `COc1cccc(-c2ccc(=O)n(C(C)C(=O)NC3CCCCC3)n2)c1` (centres unmarked) [Compound 4, N-Cyclohexyl-2-(3-(3-methoxyphenyl)-6-oxopyridazin-1(6H)-yl)propanamide], for which the “Activity 3 μM” value is “+ (activity <150% of a CFTR amplifier with compound at concentration shown and amplifier at 3 uM)”; the “Activity 10 μM” value was “+ (activity <150% of a CFTR amplifier with compound at concentration shown and amplifier at 3 uM)”.
Take `COc1cccc(-c2ccc(=O)n(C(C)C(=O)Nc3ccccn3)n2)c1` (centres unmarked) [Compound 5, 2-(3-(3-Methoxyphenyl)-6-oxopyridazin-1(6H)-yl)-N-(pyridin-2-yl)propanamide]: the “Activity 3 μM” value is “+ (activity <150% of a CFTR amplifier with compound at concentration shown and amplifier at 3 uM)”; the “Activity 10 μM” value is “+ (activity <150% of a CFTR amplifier with compound at concentration shown and amplifier at 3 uM)”.
For the compound `COc1cccc(-c2ccc(=O)n(C(C)C(=O)Nc3cccnc3)n2)c1` (centres unmarked) [Compound 6, 2-(3-(3-Methoxyphenyl)-6-oxopyridazin-1(6H)-yl)-N-(pyridin-3-yl)propanamide], the “Activity 3 μM” value was “+ (activity <150% of a CFTR amplifier with compound at concentration shown and amplifier at 3 uM)”; the “Activity 10 μM” value is “+ (activity <150% of a CFTR amplifier with compound at concentration shown and amplifier at 3 uM)”.
Consider `CC(C(=O)Nc1cc(F)cc(F)c1)n1nc(-c2ccc3cc[nH]c3c2)ccc1=O` (centres unmarked) [Compound 7, 2-(3-(1H-Indol-6-yl)-6-oxopyridazin-1(6H)-yl)-N-(3,5-difluorophenyl)propanamide], for which the “Activity 3 μM” value was “+ (activity <150% of a CFTR amplifier with compound at concentration shown and amplifier at 3 uM)”; the “Activity 10 μM” value is “+ (activity <150% of a CFTR amplifier with compound at concentration shown and amplifier at 3 uM)”.
`COc1cccc(-c2ccc(=O)n(C(C)C(=O)Nc3ccc(C(F)(F)F)cn3)n2)c1` (centres unmarked) [Compound 8, 2-[3-(3-Methoxyphenyl)-6-oxo-1,6-dihydropyridazin-1-yl]-N-[5-(trifluoromethyl)pyridin-2-yl]propanamide]: the “Activity 3 μM” value is “++ (activity >150% of a CFTR amplifier with compound at concentration shown and amplifier at 3 uM)”; the “Activity 10 μM” value was “++ (activity >150% of a CFTR amplifier with compound at concentration shown and amplifier at 3 uM)”.
For the compound `COc1cccc(-c2ccc(=O)n(C(C)C(=O)Nc3ccc(C(F)(F)F)nc3)n2)c1` (centres unmarked) [Compound 9, 2-(3-(3-Methoxyphenyl)-6-oxopyridazin-1(6H)-yl)-N-(6-(trifluoromethyl)pyridin-3-yl)propanamide], the “Activity 3 μM” value was “++ (activity >150% of a CFTR amplifier with compound at concentration shown and amplifier at 3 uM)”; the “Activity 10 μM” value was “+ (activity <150% of a CFTR amplifier with compound at concentration shown and amplifier at 3 uM)”.
For `COc1cccc(-c2ccc(=O)n(C(C)C(=O)Nc3cccc(C(F)(F)F)n3)n2)c1` (centres unmarked) [Compound 10, 2-(3-(3-Methoxyphenyl)-6-oxopyridazin-1(6H)-yl)-N-(6-(trifluoromethyl)pyridin-2-yl)propanamide], the “Activity 3 μM” value is “++ (activity >150% of a CFTR amplifier with compound at concentration shown and amplifier at 3 uM)”; the “Activity 10 μM” value is “++ (activity >150% of a CFTR amplifier with compound at concentration shown and amplifier at 3 uM)”.
Take `COc1cccc(-c2ccc(=O)n(C(C)C(=O)Nc3cc(C(F)(F)F)ccn3)n2)c1` (centres unmarked) [Compound 11, 2-(3-(3-Methoxyphenyl)-6-oxopyridazin-1(6H)-yl)-N-(4-(trifluoromethyl)pyridin-2-yl)propanamide]: the “Activity 3 μM” value was “++ (activity >150% of a CFTR amplifier with compound at concentration shown and amplifier at 3 uM)”; the “Activity 10 μM” value is “++ (activity >150% of a CFTR amplifier with compound at concentration shown and amplifier at 3 uM)”.
As for `COc1cccc(-c2ccc(=O)n(C(C)C(=O)Nc3cncc(C(F)(F)F)c3)n2)c1` (centres unmarked) [Compound 12, 2-(3-(3-Methoxyphenyl)-6-oxopyridazin-1(6H)-yl)-N-(5-(trifluoromethyl)pyridin-3-yl)propanamide], the “Activity 3 μM” value was “+ (activity <150% of a CFTR amplifier with compound at concentration shown and amplifier at 3 uM)”; the “Activity 10 μM” value was “+ (activity <150% of a CFTR amplifier with compound at concentration shown and amplifier at 3 uM)”.
As to `CC(C(=O)Nc1ccc(C(F)(F)F)cc1)n1nc(-c2cccs2)ccc1=O` (centres unmarked) [Compound 13, 2-[6-oxo-3-(thiophen-2-yl)-1,6-dihydropyridazin-1-yl]-N-[4-(trifluoromethyl)phenyl]propanamide], the “Activity 3 μM” value was “++ (activity >150% of a CFTR amplifier with compound at concentration shown and amplifier at 3 uM)”; the “Activity 10 μM” value is “+ (activity <150% of a CFTR amplifier with compound at concentration shown and amplifier at 3 uM)”.
Turning to `CC(C(=O)Nc1ccc(C(F)(F)F)cc1)n1nc(-c2ccc(Cl)s2)ccc1=O` (centres unmarked) [Compound 14, 2-(3-(5-Chlorothiophen-2-yl)-6-oxopyridazin-1(6H)-yl)-N-(4-(trifluoromethyl)phenyl)propanamide], the “Activity 3 μM” value is “++ (activity >150% of a CFTR amplifier with compound at concentration shown and amplifier at 3 uM)”; the “Activity 10 μM” value is “++ (activity >150% of a CFTR amplifier with compound at concentration shown and amplifier at 3 uM)”.
Turning to `CC(C(=O)Nc1ccc(C(F)(F)F)cc1)n1nc(-c2ccsc2)ccc1=O` (centres unmarked) [Compound 15, 2-(6-Oxo-3-(thiophen-3-yl)pyridazin-1(6H)-yl)-N-(4-(trifluoromethyl)phenyl)propanamide], the “Activity 3 μM” value was “++ (activity >150% of a CFTR amplifier with compound at concentration shown and amplifier at 3 uM)”; the “Activity 10 μM” value was “+ (activity <150% of a CFTR amplifier with compound at concentration shown and amplifier at 3 uM)”.
As to `CC(C(=O)Nc1ccc(C(F)(F)F)cc1)n1nc(-c2csc(Cl)c2)ccc1=O` (centres unmarked) [Compound 16, 2-[3-(5-Chlorothiophen-3-yl)-6-oxo-1,6-dihydropyridazin-1-yl]-N-[4-(trifluoromethyl)phenyl]propanamide], the “Activity 3 μM” value is “++ (activity >150% of a CFTR amplifier with compound at concentration shown and amplifier at 3 uM)”; the “Activity 10 μM” value is “++ (activity >150% of a CFTR amplifier with compound at concentration shown and amplifier at 3 uM)”.
`CC(C(=O)Nc1ccc(C(F)(F)F)cn1)n1nc(-c2cccc(Cl)c2)ccc1=O` (centres unmarked) [Compound 17, 2-(3-(3-Chlorophenyl)-6-oxopyridazin-1(6H)-yl)-N-(5-(trifluoromethyl)pyridin-2-yl)propanamide]: the “Activity 3 μM” value was “++ (activity >150% of a CFTR amplifier with compound at concentration shown and amplifier at 3 uM)”; the “Activity 10 μM” value is “++ (activity >150% of a CFTR amplifier with compound at concentration shown and amplifier at 3 uM)”.
On to `COc1csc(-c2ccc(=O)n(C(C)C(=O)Nc3ccc(C(F)(F)F)cc3)n2)c1` (centres unmarked) [Compound 18, 2-(3-(4-Methoxythiophen-2-yl)-6-oxopyridazin-1(6H)-yl)-N-(4-(trifluoromethyl)phenyl)propanamide], for which the “Activity 10 μM” value was “+ (activity <150% of a CFTR amplifier with compound at concentration shown and amplifier at 3 uM)”.
For the compound `COc1cc(-c2ccc(=O)n(C(C)C(=O)Nc3ccc(C(F)(F)F)cc3)n2)ccn1` (centres unmarked) [Compound 19, 2-(3-(2-Methoxypyridin-4-yl)-6-oxopyridazin-1(6H)-yl)-N-(4-(trifluoromethyl)phenyl)propanamide], the “Activity 3 μM” value was “+ (activity <150% of a CFTR amplifier with compound at concentration shown and amplifier at 3 uM)”; the “Activity 10 μM” value is “+ (activity <150% of a CFTR amplifier with compound at concentration shown and amplifier at 3 uM)”.

(Values after patent US20190248779A1, “COMPOUNDS, COMPOSITIONS, AND METHODS FOR INCREASING CFTR ACTIVITY” (Proteostasis Therapeutics, Inc., priority 2016, published 2019).)
